Experiments:
[1] = test system: patients with severe coronary artery disease; test: Angina symptoms and clinical outcome of treated patients (case reports); type: in vivo, human; settings: for time to clearing of congestive heart failure: furosemide 40 mg twice a day, digoxin 0.25 mg, warfarin 5 mg once a day; for angina frequency: buspirone 20 mg t.i.d.
Text: The patient population in this study consisted of 11 individuals with severe coronary artery disease who were refractory to CABG or PCTA or who declined recommended CABG or PCTA, and one individual with severe carotid artery stenosis. The study group consisted of 10 men and 2 women, with a median age at entry into the program of 65 years (mean, 65.8 years), and a mean time in program of 4.1 years (range, 9 months to 12 years).
In this study, ten patients experienced angina at the time of presentation. The median time to remission of anginal symptoms was calculated on the basis of the nine patients who presented with angina and for whom records of anginal frequency were accessible.

[2] = test system: patients with severe coronary artery disease; test: Tolerability / adverse effects in treated patients
[3] = Serum lipids and laboratory values of treated patients (case reports)

**Q.** Which “time to clearing of congestive heart failure” value ([1]; Patient three, given together) does the source give for C[C@H]1O[C@@H](O[C@H]2[C@@H](O)C[C@H](O[C@H]3[C@@H](O)C[C@H](O[C@H]4CC[C@@]5(C)[C@H](CC[C@@H]6[C@@H]5C[C@@H](O)[C@]5(C)[C@@H](C7=CC(=O)OC7)CC[C@]65O)C4)O[C@@H]3C)O[C@@H]2C)C[C@H](O)[C@@H]1O [digoxin] here?
**A.** The value was 24 h.

**Q.** For O=C(O)c1cccnc1 [niacin], which adverse effect ([2]; Patient three, niacin 3.0 g/day, weeks 5-7, dose decreased to 1.5 g/day) is on record?
**A.** Its adverse effect is “itching and flushing”.

**Q.** And the tolerability ([2]; Patient two, niacin 3 g per day, dose decreased to 1 g per day)?
**A.** The tolerability was “intolerance appeared”.

**Q.** With colestipol as the compound, how does the “serum total cholesterol, mean of three determinations” value ([3]; Patient five, colestipol 12 g per day, declined from 241) read?
**A.** The value was 217 mg/dL.

**Q.** And the angina ([1]; Patient five, colestipol 12 g per day)?
**A.** The angina was “severity of their angina declined”.

**Q.** Which total cholesterol ([3]; Patient two, fifth year, lovastatin discontinued, range 155 to 194) does the source give for CC[C@H](C)C(=O)O[C@H]1C[C@@H](C)C=C2C=C[C@H](C)[C@H](CC[C@@H]3C[C@@H](O)CC(=O)O3)[C@H]21 [lovastatin] here?
**A.** The total cholesterol was 176 mg/dL.

**Q.** And the adverse event ([2]; Patient four, on lovastatin 30 mg per day regimen, pravastatin substituted)?
**A.** Its adverse event is “mild conjunctivitis of unknown etiology”.

**Q.** Which results are given for CCC(C)(C)C(=O)O[C@H]1C[C@@H](C)C=C2C=C[C@H](C)[C@H](CC[C@@H]3C[C@@H](O)CC(=O)O3)[C@H]21 [simvastatin]?
**A.** serum total cholesterol, mean of five determinations ([3]; Patient four, simvastatin 40 mg per day substituted for pravastatin in the regimen, range 81-146): 118 mg/dL; HDL cholesterol, mean of five determinations ([3]; Patient four, simvastatin 40 mg per day, range 37-71): 55 mg/dL; HDL ([3]; Patient four, year of 1995): 82 mg/dL; LDL ([3]; Patient four, year of 1995): 53 mg/dL; total cholesterol ([3]; Patient four, year of 1995): 121 mg/dL; triglycerides ([3]; Patient four, year of 1995): 44 mg/dL

**Q.** Which “time to clearing of congestive heart failure” value ([1]; Patient three, given together) does the source give for CC(=O)CC(c1ccccc1)c1c(O)c2ccccc2oc1=O (centres unmarked) [warfarin] here?
**A.** The value was 24 h.

**Q.** What does the source list for O=[N+]([O-])OCC(CO[N+](=O)[O-])O[N+](=O)[O-] [nitroglycerin]?
**A.** angina after discontinuation ([1]; Patient five, discontinuation of the nitroglycerin): five episodes of angina; nonexertional angina ([1]; Patient five, transdermal nitroglycerin): refractory; left neck pain ([1]; Patient two, 15 months after induction of therapy): relieved

**Q.** Which angina ([1]; Patient three, diltiazem restarted after one month of lisinopril) does the source give for COc1ccc([C@@H]2Sc3ccccc3N(CCN(C)C)C(=O)[C@@H]2OC(C)=O)cc1 [diltiazem] here?
**A.** Its angina is “prompt remission of angina”.

**Q.** For O=C1CC2(CCCC2)CC(=O)N1CCCCN1CCN(c2ncccn2)CC1 [buspirone], which angina ([1]; Patient five, buspirone 15 mg t.i.d. added, induction phase) is on record?
**A.** Its angina is “their angina remitted”.

**Q.** And the angina frequency ([1]; Patient five, no use of nitroglycerin)?
**A.** The angina frequency was “one episode of mild angina in two weeks”.

**Q.** What about the angina frequency ([1]; Patient five, through June of the next year) of the same compound?
**A.** Its angina frequency is “no episodes of angina”.

**Q.** And the angina symptoms ([1]; Patient five, buspirone increased to 20 mg t.i.d., isosorbide dinitrate discontinued)?
**A.** The angina symptoms was “Marked palliation of the symptoms”.

**Q.** And the “chest tightness with anxiety or distress” value ([1]; Patient one, buspirone 10 mg b.i.d. added to medications)?
**A.** The value was “no further episodes of chest tightness were reported”.

**Q.** What about the “frequency of angina symptoms” value ([1]; Patient, buspirone 30 mg per day, after one month 15 mg t.i.d.) of the same compound?
**A.** The value was “remained approximately constant”.

**Q.** And the “severity of angina symptoms” value ([1]; Patient, buspirone 30 mg per day, after one month 15 mg t.i.d., added to medications)?
**A.** Its value is “declined markedly, from pain to mild tightness”.

**Q.** What about the anginal symptoms ([1]; Patient, buspirone, six months after initiation of therapy) of the same compound?
**A.** The anginal symptoms was “resolved completely”.

**Q.** What about the “relief from refractory unstable angina” value ([1]; summary of results) of the same compound?
**A.** Its value is “effective in providing relief from refractory unstable angina”.

**Q.** With NCCCC[C@H](N[C@@H](CCc1ccccc1)C(=O)O)C(=O)N1CCC[C@H]1C(=O)O [lisinopril] as the compound, how does the angina ([1]; Patient three, lisinopril 5 mg/day substituted for diltiazem 60 mg four times a day) read?
**A.** Its angina is “Angina recurred with mild to moderate exercise”.

**Q.** Which “relief of fatigue and difficulty sleeping” value ([1]; Patient three, trazodone 50 mg and imipramine 25 mg at bedtime, given together) does the source give for O=c1n(CCCN2CCN(c3cccc(Cl)c3)CC2)nc2ccccn12 [trazodone] here?
**A.** Its value is “fair to moderate relief”.

From US7109206B2
